Assay results as given in paper PMC8171062, “Crystallographic fragment screening-based study of a novel FAD-dependent oxidoreductase from Chaetomium thermophilum” (Acta Crystallographica. Section D, Structural Biology, 2021).

What was measured:
Assay in all cases: X-ray crystal structure, […] A, soaking
Type in all cases: binding
[1] = molecular target: T1, CtFDO (CtFDOdegl) (Thermochaetoides thermophila, UniProt G0SAW6); details: 20 mM MgCl2; two molecules per chain, subsites S1 and S3; occupancy 0.7-0.8; formic acid in catalytic site
T1 construct: gene CTHT_0048040; secreted from Aspergillus oryzae, no tag mentioned; signal peptide (21), next 20 N-terminal and 8 C-terminal residues absent; 595 residues by LC-MS/MS; endoglycosidase F1 deglycosylated; about 68 kDa; monomer
T1 sequence (G0SAW6 entry or part of it): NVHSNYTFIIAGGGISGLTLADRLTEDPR
T1 sequence (G0SAW6 entry or part of it): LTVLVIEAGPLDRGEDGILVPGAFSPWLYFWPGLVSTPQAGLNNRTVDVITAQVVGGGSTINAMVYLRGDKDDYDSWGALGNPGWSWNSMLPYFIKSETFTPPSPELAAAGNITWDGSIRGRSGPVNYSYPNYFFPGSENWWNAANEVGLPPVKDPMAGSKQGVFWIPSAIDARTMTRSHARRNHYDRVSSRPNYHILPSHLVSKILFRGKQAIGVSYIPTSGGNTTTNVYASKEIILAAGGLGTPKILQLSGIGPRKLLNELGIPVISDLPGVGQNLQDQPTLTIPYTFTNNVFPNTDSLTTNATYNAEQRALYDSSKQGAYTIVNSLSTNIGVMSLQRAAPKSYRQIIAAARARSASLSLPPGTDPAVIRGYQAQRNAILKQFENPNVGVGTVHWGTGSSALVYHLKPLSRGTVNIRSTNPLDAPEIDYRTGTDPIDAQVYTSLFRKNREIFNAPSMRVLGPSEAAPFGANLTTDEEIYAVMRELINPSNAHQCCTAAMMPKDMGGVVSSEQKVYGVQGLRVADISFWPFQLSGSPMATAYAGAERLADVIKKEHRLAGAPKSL

[2] = molecular target: T1, CtFDO (CtFDOdegl); details: crystals at pH 5.5; catalytic site; occupancy 1.0; formic acid in S1
[3] = molecular target: T1, CtFDO (CtFDOdegl); details: crystals at pH 5.5; thiophene in subsite S2, aliphatic moiety in catalytic site; occupancy 0.9; formic acid in S1

**Q.** For O=[N+]([O-])c1ccc(O)c(O)c1 [4NC, 4-nitrocatechol], which “X-ray crystal structure, 1.26 A, soaking” value [1] is on record?
**A.** both CtFDOdegl chains bind two molecules of 4NC

**Q.** With COC(=O)c1ccc(CN)cc1 [MAMB, methyl-4-(aminomethyl)benzoate] as the compound, how does the “X-ray crystal structure, 2.22 A, soaking” value [2] read?
**A.** CtFDOdegl binds one MAMB molecule in the CS

**Q.** Which “X-ray crystal structure, 1.60 A, soaking” value [3] does the source give for C[C@H](NC(=O)CCC(=O)c1cccs1)c1cccnc1 [PESB, 4-oxo-N-[(1S)-1-(pyridin-3-yl)ethyl]-4-(thiophen-2-yl)butanamide] here?
**A.** each protein chain binds one PESB molecule
